Assay results published in patent US20100041897A1, “Process for preparing a crystalline form of candesartan cilexetil” (CHEMO IBERICA, S.A., priority 2006, published 2010).
“Also recorded” adds a separate entry of the source. Each block holds one compound with its values, some of them ahead of it.

How the values were obtained:
[1] = Accelerated stability test at 80° C., impurities determined by HPLC; format: physicochemical; details: for stability in accelerated stability test (in words): 80° C.
Experimental: In order to determine the influence of Form II on the stability of candesartan cilexetil Form I, samples with different proportions of Form II were prepared and subjected to an accelerated stability test at a temperature of 80° C. for different periods of time up to 9 days. Once the time period elapsed, the samples were analyzed by HPLC for the determination of the content of impurities, according to the method described in the Examples. Samples of candesartan cilexetil Form I containing different proportions of Form II were prepared from the products obtained in Example 2 and Preparative Example 1. The samples were exposed to an accelerated stability test at a temperature of 80° C. for different time periods up to 9 days. Once the time period has elapsed, the samples were analyzed by HPLC for the determination of the content of impurities. Impurities corresponding to the following retention times: 8.3, 10.4, 12.5, 14.1 and 16.4 minutes were identified in the HPLC chromatograms. The HPLC analysis of impurities was carried out in a HPLC system with UV detector (Waters Alliance), with a L1-type column according to US Pharmacopeia nomenclature, at a temperature of 30° C., with a flow rate of 1 ml/min, an injection volume of 10 μl, and an UV detector at 210 nm. The mobile phase was constituted by a mixture of solution A (v/v) (aqueous 0.1% v/v trifluoroacetic acid buffer) and acetonitrile. During the analysis the mobile phase contained 45% of Solution A and 55% of acetonitrile, except for the period comprised from minute 15 to minute 25 wherein a mixture of 5% Solution A and 95% acetonitrile was used. The sample was prepared dissolving 0.2 mg of the sample in 1 ml of mobile phase. The sum of the impurities refers to the sum of areas recorded in the HPLC chromatogram corresponding to the degradation impurities detected at the retention times above specified.

[2] = as above; format: physicochemical; details: product of crystallization assay from acetone/water 3:1 v/v, 80° C. for 5 to 9 days
[3] = solid sample kept at 80° C. for 7 days
[4] = solid sample kept at 80° C. for 9 days

Compound: CCOc1nc2cccc(C(=O)OC(C)OC(=O)OC3CCCCC3)c2n1Cc1ccc(-c2ccccc2-c2nnn[nH]2)cc1 (centres unmarked) [Assay 4, candesartan cilexetil]
Stability ([2]; listed as 4): Good

Compound: CCOc1nc2cccc(C(=O)OC(C)OC(=O)OC3CCCCC3)c2n1Cc1ccc(-c2ccccc2-c2nnn[nH]2)cc1 (centres unmarked) [Form II (Preparative Example 1), 2-ethoxy-1-[[2′-(1H-tetrazol-5-yl)[1,1′-biphenyl]-4-yl]methyl]-1H-benzimidazole-7-carboxylic acid, 1-[[(cyclohexyloxy)carbonyl]oxy]ethyl ester, reference compound]
content of impurities ([1]; 80° C. for 5 days, calculated from the areas of the HPLC chromatogram): 60 % (w/w) | stability in accelerated stability test (in words) ([1]; listed as Form II): unstable; also recorded: high instability | Sum of impurities (% HPLC area) ([1]; solid sample kept at 80° C. for 5 days): 59.98 % HPLC area

Compound: CCOc1nc2cccc(C(=O)OC(C)OC(=O)OC3CCCCC3)c2n1Cc1ccc(-c2ccccc2-c2nnn[nH]2)cc1 (centres unmarked) [Form I + 0.1% of Form II, candesartan cilexetil]
Sum of impurities (% HPLC area) [1, 4]: 0.96 % HPLC area

Compound: CCOc1nc2cccc(C(=O)OC(C)OC(=O)OC3CCCCC3)c2n1Cc1ccc(-c2ccccc2-c2nnn[nH]2)cc1 (centres unmarked) [Form I (Example 2), 2-ethoxy-1-[[2′-(1H-tetrazol-5-yl)[1,1′-biphenyl]-4-yl]methyl]-1H-benzimidazole-7-carboxylic acid, 1-[[(cyclohexyloxy)carbonyl]oxy]ethyl ester]
stability in accelerated stability test (in words) ([1]; listed as candesartan cilexetil Form I): good stability; also recorded: high stability | Sum of impurities (% HPLC area) [1, 3]: 0.34 % HPLC area

Compound: CCOc1nc2cccc(C(=O)OC(C)OC(=O)OC3CCCCC3)c2n1Cc1ccc(-c2ccccc2-c2nnn[nH]2)cc1 (centres unmarked) [Example 1, candesartan cilexetil]
Stability [2]: Poor

Compound: CCOc1nc2cccc(C(=O)OC(C)OC(=O)OC3CCCCC3)c2n1Cc1ccc(-c2ccccc2-c2nnn[nH]2)cc1 (centres unmarked) [Form I + 0.5% of Form II, candesartan cilexetil]
Sum of impurities (% HPLC area) [1, 3]: 1.46 % HPLC area

Compound: CCOc1nc2cccc(C(=O)OC(C)OC(=O)OC3CCCCC3)c2n1Cc1ccc(-c2ccccc2-c2nnn[nH]2)cc1 (centres unmarked) [Form I + 0.3% of Form II, candesartan cilexetil]
Sum of impurities (% HPLC area) [1, 4]: 1.21 % HPLC area

The remaining lines, values ahead:

Sum of impurities (% HPLC area) [1, 3]: 2.88 % HPLC area
Compound: CCOc1nc2cccc(C(=O)OC(C)OC(=O)OC3CCCCC3)c2n1Cc1ccc(-c2ccccc2-c2nnn[nH]2)cc1 (centres unmarked) [Form I + 2.0% of Form II, candesartan cilexetil]

stability in accelerated stability test (in words) [1]: deficient stability
Compound: CCOc1nc2cccc(C(=O)OC(C)OC(=O)OC3CCCCC3)c2n1Cc1ccc(-c2ccccc2-c2nnn[nH]2)cc1 (centres unmarked) [Comparative Example 2, candesartan cilexetil]

Sum of impurities (% HPLC area) [1, 3]: 12.78 % HPLC area
Compound: CCOc1nc2cccc(C(=O)OC(C)OC(=O)OC3CCCCC3)c2n1Cc1ccc(-c2ccccc2-c2nnn[nH]2)cc1 (centres unmarked) [Form I + 10.0% of Form II, candesartan cilexetil]

Sum of impurities (% HPLC area) [1, 3]: 2.00 % HPLC area
Compound: CCOc1nc2cccc(C(=O)OC(C)OC(=O)OC3CCCCC3)c2n1Cc1ccc(-c2ccccc2-c2nnn[nH]2)cc1 (centres unmarked) [Form I + 1.0% of Form II, candesartan cilexetil]

Sum of impurities (% HPLC area) [1, 3]: 23.20 % HPLC area
Compound: CCOc1nc2cccc(C(=O)OC(C)OC(=O)OC3CCCCC3)c2n1Cc1ccc(-c2ccccc2-c2nnn[nH]2)cc1 (centres unmarked) [Form I + 20.0% of Form II, candesartan cilexetil]

Stability ([2]; listed as 3): Poor
Compound: CCOc1nc2cccc(C(=O)OC(C)OC(=O)OC3CCCCC3)c2n1Cc1ccc(-c2ccccc2-c2nnn[nH]2)cc1 (centres unmarked) [Assay 3, candesartan cilexetil]

Sum of impurities (% HPLC area) [1, 3]: 6.65 % HPLC area
Compound: CCOc1nc2cccc(C(=O)OC(C)OC(=O)OC3CCCCC3)c2n1Cc1ccc(-c2ccccc2-c2nnn[nH]2)cc1 (centres unmarked) [Form I + 5.0% of Form II, candesartan cilexetil]
